Laboratory results from US10160785B2, “Antimicrobial peptides and their use for the treatment of topical infections” (priority 2015, dated 2018).

Tests used:
Candida krusei ATCC 6258 = experiment: microbe, parasite or virus in culture; assay type: cell-based; conditions: RPMI broth microdilution, 35° C., 48 hours, visual
Experimental: (§1) All yeasts Candida albicans (Olomouc) and ATCC MYA-2876, Candida glabrata ATCC 2001 and DSY 565, Candida dubliniensis ATCC MYA-646, Candida krusei ATCC 6258 and Candida tropicalis ATCC 750 were sub-cultured from sterile vials onto Sabouraud dextrose agar, which was composed of 40 g dextrose (Penta, Czech Republic), 10 g peptone (OXOID, Great Britain) and 17 g agar (OXOID), dissolved in 1 l of distilled water, and cultivated for 24 hours at 35° C.
(§2) All strains were stored in a way that minimizes the possibility of mutation. Candida spp. were grown overnight in liquid YPD medium which is composed of 10 g yeast extract (DIFCO, USA), 20 g peptone (OXOID), and 20 g dextrose (Penta) dissolved in 1 l distilled water. Then the overnight culture was cryogenically preserved by suspending in 50% glycerol solution (1:1) in small vials and stored at −80° C.
(§3) The inoculum was prepared by picking five colonies from 24-hour-old cultures of Candida spp. The colonies were suspended in 1 ml of sterile saline solution and vortexed for 15 seconds. Optical density of the suspension was adjusted spectrophotometrically by adding sterile saline solution to produce optical density of 0.18 at 600 nm. A working suspension was made by a 1:50 dilution followed by a 1:20 dilution of the stock suspension with RPMI 1640 broth medium which was composed of L-glutamine without NaHCO3 (BioSera, France), and with 0.165 mol.l^−1 MOPS (Duchefa, Netherland)—further as RPMI broth medium.
(§4) The broth microdilution test was performed by using sterile, disposable, multi-well microdilution plates (96-well). The peptides in the concentrations 0.625-160 μmol.l^−1 were pipetted into the wells in 100 μl volumes. Each well of the plate was inoculated with 100 μl of the diluted inoculum suspension. Final yeast density in each well was 5×10^2 up to 2.5×10^3 CFU/ml. The microdilution plates were incubated without shaking at 35° C. and observed for the presence or absence of visible growth for 48 hours.
(§5) Drug-free medium without inoculation served as negative control; the growth positive control contained inoculated drug-free medium. Amphotericin B was used as control drug to ensure quality of Candida strains.
(§6) The minimal inhibition concentrations (MICs) were visually determined 48 hours after inoculation. The MIC values were defined as the lowest concentration in which no observable growth is noticeable.
(§7) All yeast isolates were obtained from the Institute of Physiology of the Academy of Sciences of the Czech Republic. Candida albicans (Olomouc) came from the Faculty of Medicine and Dentistry, Palacý University Olomouc.

Candida glabrata DSY 565 = experiment: microbe, parasite or virus in culture; assay type: cell-based; conditions: RPMI broth microdilution, 35° C., 48 hours, visual
Experimental: as §1, §2, §3, §4, §5, §6, §7

[1] = system: Candida glabrata ATCC 2001; experiment: microbe, parasite or virus in culture; assay type: cell-based; conditions: RPMI broth microdilution, 35° C., 48 hours, visual
Experimental: as §1, §2, §3, §4, §5, §6, §7

[2] = system: Candida albicans (Olomouc); experiment: microbe, parasite or virus in culture; assay type: cell-based; conditions: RPMI broth microdilution, 35° C., 48 hours, visual
Experimental: as §1, §2, §3, §4, §5, §6, §7

[3] = system: Candida tropicalis ATCC 750; experiment: microbe, parasite or virus in culture; assay type: cell-based; conditions: RPMI broth microdilution, 35° C., 48 hours, visual
Experimental: as §1, §2, §3, §4, §5, §6, §7

[4] = system: Candida dubliniensis ATCC MYA-646; experiment: microbe, parasite or virus in culture; assay type: cell-based; conditions: RPMI broth microdilution, 35° C., 48 hours, visual
Experimental: as §1, §2, §3, §4, §5, §6, §7

[5] = system: Candida albicans ATCC MYA-2876; experiment: microbe, parasite or virus in culture; assay type: cell-based; conditions: RPMI broth microdilution, 35° C., 48 hours, visual
Experimental: as §1, §2, §3, §4, §5, §6, §7

in vitro = conditions: human
Procedure, shortened: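 Peptides at 2-200 μmol.l^−1 incubated 1 h at 37 °C with 5% v/v human erythrocyte suspension in physiological solution. Released haemoglobin in supernatant read at 540 nm against buffer (0%) and 0.2% Triton X100 (100%) lysis controls. LC50 is the peptide concentration lysing 50% of cells.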

P. aeruginosa (Liberec) = experiment: Synergistic effect of peptides with antibiotics, FIC index; assay type: cell-based, Pseudomonas aeruginosa; conditions: FIC <0.5 synergism, 0.5-2 additive, >2 antagonism, averages of three experiments; for FIC indexes (fractional inhibitory concentration) Combination with RIF against P. aeruginosa: peptide combined with rifampicin; for FIC indexes (fractional inhibitory concentration) Combination with TET against P. aeruginosa: peptide combined with tetracycline
Experimental: MICs values of various combinations of two fold serial dilutions of peptides and antibiotics were determined using the same methodology as in the case of antimicrobial activity determination (Example 2). To consider the type of the final effect, FIC indexes (fractional inhibitory concentration) were used and calculated as follows:
[formula] where MICPC and MICAC are the MICs of the peptide and antibiotic in combination, respectively, and MICP and MICA are the MICs of the peptide and antibiotic tested alone, respectively. FIC<0.5 were considered as synergy, 0.5≤FIC≤2 as addition effect, and FIC>2 as antagonism.

Escherichia coli = conditions: 37° C., 20 h
Experimental: (§8) Gram-positive bacteria (Micrococcus luteus, Bacillus subtilis, Staphylococcus aureus, Staphylococcus epidermidis and Enterococcus faecalis), Gram-negative bacteria (Escherichia coli and Pseudomonas aeruginosa) and the yeast (Candida albicans) were grown to exponential phase and then were diluted with fresh medium. BHI medium (Oxoid, Great Britain) was used for Enterococcus faecalis; YPD medium containing yeast extract peptone and glucose was used for Candida albicans and LB medium (Sigma, Czech Republic) was used for the remaining microorganisms. Then the microorganisms were added to the solutions of the tested antimicrobial peptides in LB medium in multi-well plates. The final peptide concentration it the wells was in the range of 0.1 to 100 μmol.l^−1. That was made by twofold serial dilution from the peptide stock solution (1 mmol.l^−1). The plates were incubated at 37° C. for 20 h while being continuously shaken in a Bioscreen C (Oy Growth Curves AB Ltd., Helsinki, Finland). Absorbance was measured at 540 nm every 15 min. Antimicrobial activity (Table 2) was determined as a quantitative minimum inhibitory concentration (MIC) by observing bacterial growth in the presence of different concentrations of tested peptides. In the experiments ca 10^5 CFU of bacteria or candida per well were routinely used.
(§9) Multiresistant clinical isolates of bacteria were obtained from University Hospital in Motol, Prague, Czech Republic and from Liberec Regional Hospital, Czech Republic. Methicillin resistant Staphylococcus aureus (MRSA) 6271 and Pseudomonas aeruginosa 5482 were from the Czech National Collection of Type Cultures, the National Institute of Public Health, Prague, Czech Republic. Other bacteria were from the Czech Collection of Microorganisms, Brno, Czech Republic. Candida albicans came from the Faculty of Medicine, Palacky University, Olomouc, Czech Republic.

[6] = system: Enterococcus faecalis Motol; conditions: BHI medium, 37° C., 20 h
Experimental: as §8, §9

[7] = system: Pseudomonas aeruginosa Liberec; conditions: for Antimicrobial activity MIC P. a. Liberec: Pseudomonas aeruginosa Liberec, 37° C., 20 h
Experimental: as §8, §9

[8] = system: Staphylococcus aureus Motol; conditions: Staphylococcus aureus Motol clinical isolate; 37° C., 20 h
Experimental: as §8, §9

Candida albicans Olomouc = conditions: for Antimicrobial activity MIC C. a. Olomouc: Candida albicans Olomouc, YPD medium, 37° C., 20 h (Example 2)
Experimental: as §8, §9

[9] = system: Pseudomonas aeruginosa 5482; conditions: 37° C., 20 h
Experimental: as §8, §9

[10] = system: Staphylococcus aureus Liberec; conditions: for Antimicrobial activity MIC S. a. Liberec: Staphylococcus aureus Liberec clinical isolate, 37° C., 20 h
Experimental: as §8, §9

[11] = system: Methicillin resistant Staphylococcus aureus (MRSA) 6271; conditions: 37° C., 20 h
Experimental: as §8, §9

[12] = system: Staphylococcus epidermidis Motol; conditions: 37° C., 20 h
Experimental: as §8, §9

Micrococcus luteus = conditions: for Antimicrobial activity MIC M. l.: Micrococcus luteus, 37° C., 20 h
Experimental: as §8, §9

Bacillus subtilis = conditions: for Antimicrobial activity MIC B. s.: Bacillus subtilis, 37° C., 20 h
Experimental: as §8, §9

[13] = synthetically prepared hylanine, in words

Molecule	Antifungal activity MIC C. krusei ATCC 6258 (Candida krusei ATCC 6258)	Antifungal activity MIC C. glabrata DSY 565 (Candida glabrata DSY 565)	Antifungal activity MIC C. glabrata ATCC 2001 [1]	Antifungal activity MIC C. albicans Olomouc [2]	Antifungal activity MIC C. tropicalis ATCC 750 [3]	Antifungal activity MIC C. dubliniensis ATCC MYA-646 [4]	Antifungal activity MIC C. albicans ATCC MYA-2876 [5]	HC50 at 1 h (in vitro)	FIC indexes (fractional inhibitory concentration) Combination with RIF against P. aeruginosa (P. aeruginosa (Liberec))	Antimicrobial activity MIC E. c. (Escherichia coli)	Antimicrobial activity MIC E. f. Motol [6]	Antimicrobial activity MIC P. a. Liberec [7]	Antimicrobial activity MIC S. a. Motol [8]	Antimicrobial activity MIC C. a. Olomouc (Candida albicans Olomouc)	Antimicrobial activity MIC P. a. 5482 [9]	Antimicrobial activity MIC S. a. Liberec [10]	Antimicrobial activity MIC S. a. 6271 [11]	Antimicrobial activity MIC S. e. Motol [12]	Antimicrobial activity MIC M. l. (Micrococcus luteus)	Antimicrobial activity MIC B. s. (Bacillus subtilis)	also measured
H-GILSSLLKKWKKIIAK-NH2 [XVI]	10.0 µM	231.1 µM	40.0 µM	18.0 µM	1.0 µM	40.0 µM	26.0 µM	> 400 µM	0.417	7.5 µM	100.0 µM	7.1 µM	20.3 µM	10.5 µM	5.0 µM	8.8 µM	20.0 µM	2.7 µM	2.0 µM	1.6 µM	FIC indexes (fractional inhibitory concentration) Combination with TET against P. aeruginosa (P. aeruginosa (Liberec)): 0.583
H-GIMSSLMKKLAAHIKK-NH2 [VIII]	10.0 µM	66.7 µM	26.0 µM	17.0 µM	1.1 µM	36.0 µM	20.0 µM			20.0 µM	>100 µM	46.0 µM	90.0 µM	5.0 µM	23.0 µM	76.7 µM	85.3 µM	11.3 µM	1.6 µM	2.8 µM	
H-GILSSLWKKLKKWIAK-NH2 [XVII]	3.3 µM	11.0 µM	5.5 µM	4.5 µM	0.8 µM	5.0 µM	5.5 µM	57.2 µM	0.292	2.5 µM	10.0 µM	24.1 µM	2.0 µM	12.7 µM	12.7 µM	1.6 µM	2.5 µM	1.6 µM		1.3 µM	FIC indexes (fractional inhibitory concentration) Combination with TET against P. aeruginosa (P. aeruginosa (Liberec)): 0.417
H-GIMSSLMKKLAAHIAK-NH2 [hylanine, reference compound]																					activity against Pseudomonas aeruginosa ([7]; all strains, in words): weak; activity against the yeast Candida albicans (Candida albicans Olomouc; [13]): moderate activity; activity against Staphylococcus aureus ([10]; all strains of pathogenic Staphylococcus aureus, in words): weak; antimicrobial activity against Micrococcus luteus (Micrococcus luteus; [13]): high antimicrobial activity; antimicrobial activity against Bacillus subtilis (Bacillus subtilis; [13]): high antimicrobial activity
CN(C)[C@@H]1C(=O)C(C(N)=O)=C(O)[C@@]2(O)C(=O)C3=C(O)c4c(O)cccc4[C@@](C)(O)[C@H]3C[C@@H]12 [Tetracyklin, Tetracycline, reference compound]										2.7 µM	40.0 µM	70.4 µM	2.0 µM		28.7 µM	1.1 µM	0.9 µM	>100 µM	0.8 µM	16.0 µM	
